Reference: ChEMBL document CHEMBL3885861, “Open TG-GATES”

Species on record: Rattus norvegicus
Experiment: Open TG-GATES - Regimen: Daily Repeat
Assay type: toxicity, organism-based, Sprague-Dawley
Set-up: regimen Daily Repeat, gender Male, age 6 weeks
Settings: in vivo, po, route gavage; for gamma-GTP / ALP / AST / BUN / CRE / Ca / Cl / DBIL / GLC / IP / K / LDH / Na / PL / RALB / TBIL / TC / TG / TP: tissue Plasma; for APTT / Bas / Eos / Fbg / Hb / Ht / Lym / MCH / MCHC / MCV / Mono / Neu / PT / Plat / RBC / Ret / WBC: tissue Blood; for KIDNEY_L / KIDNEY_R / KIDNEY_TOTAL: tissue Kidney; for LIVER: tissue Liver
[1] = 300 mg/kg, 72 h, dose level Middle, time 3 day
[2] = 300 mg/kg, […], dose level Middle, time 7 day
[3] = 300 mg/kg, […], dose level Middle, time 14 day
[4] = 300 mg/kg, […], dose level Middle, time 28 day

With COc1ccc2[nH]c([S+]([O-])Cc3ncc(C)c(OC)c3C)nc2c1 (centres undefined) [OMEPRAZOLE] the gamma-GTP (100 mg/kg, […], dose level Low, time 28 day) was 0.8 IU/L, the APTT [1] was 19.8 s and the Bas [1] was 0%. The Eos [1] was 0.8%, the Fbg [1] was 223 mg/dL and the Hb [1] was 13 g/dL. For the same compound, the Ht [1] was 37.9%, the Lym [1] was 81% and the MCH [1] was 20.9 pg. For the same compound, the MCHC [1] was 34.3%, the MCV [1] was 60.9 fL and the Mono [1] was 3.6%. For the same compound, the Neu [1] was 14%, the PT [1] was 12.2 s and the Plat [1] was 135 x10_4/uL. The RBC [1] was 623 x10_4/ul, the Ret [1] was 4.2% and the WBC [1] was 94 x10_2/uL. It also gave a KIDNEY_L [1] of 1 g, a KIDNEY_R [1] of 1 g and a KIDNEY_TOTAL [1] of 2.1 g. It also gave an LIVER [1] of 12.8 g, an ALP [1] of 925.8 IU/L and an AST [1] of 61.4 IU/L. The BUN [1] was 14.8 mg/dL, the CRE [1] was 0.4 mg/dL and the Ca [1] was 10.5 mg/dL. It also gave a Cl [1] of 100.8 meq/L, a DBIL [1] of 0.058 mg/dL and a GLC [1] of 220.6 mg/dL. It also gave an IP [1] of 8.9 mg/dL, a K [1] of 3.9 meq/L and an LDH [1] of 184.6 IU/L. It also gave a Na [1] of 139.8 meq/L, a PL [1] of 175.8 mg/dL and an RALB [1] of 3.4 g/dL. The TBIL [1] was 0.1 mg/dL, the TC [1] was 101.2 mg/dL and the TG [1] was 85 mg/dL. The TP [1] was 5.6 g/dL, the gamma-GTP [1] was 1 IU/L and the TERMINAL_BW [2] was 269.3 g. The TERMINAL_BW [3] was 314.9 g, the TERMINAL_BW [4] was 384.1 g and the APTT [2] was 21.7 s. The Bas [2] was 0%, the Eos [2] was 1% and the Fbg [2] was 216.8 mg/dL. It also gave a Hb [2] of 13.4 g/dL, a Ht [2] of 39.5% and a Lym [2] of 78.8%. The MCH [2] was 20.6 pg, the MCHC [2] was 33.9% and the MCV [2] was 60.8 fL. The Mono [2] was 3%, the Neu [2] was 17.4% and the PT [2] was 12 s. The Plat [2] was 156.8 x10_4/uL, the RBC [2] was 649.8 x10_4/ul and the Ret [2] was 4.9%. For the same compound, the WBC [2] was 98.4 x10_2/uL, the APTT [3] was 20.3 s and the Bas [3] was 0%. It also gave an Eos [3] of 0.8%, a Fbg [3] of 211.4 mg/dL and a Hb [3] of 13.6 g/dL. For the same compound, the Ht [3] was 39.2%, the Lym [3] was 83.8% and the MCH [3] was 20 pg. The MCHC [3] was 34.6%, the MCV [3] was 57.6 fL and the Mono [3] was 2.8%. The Neu [3] was 11.4%, the PT [3] was 12.2 s and the Plat [3] was 128.3 x10_4/uL. For the same compound, the RBC [3] was 681.4 x10_4/ul, the Ret [3] was 4.2% and the WBC [3] was 96 x10_2/uL. It also gave an APTT [4] of 21.8 s, a Bas [4] of 0% and an Eos [4] of 0.8%. It also gave a Fbg [4] of 203 mg/dL, a Hb [4] of 14.5 g/dL and a Ht [4] of 42.2%. The Lym [4] was 80.4%, the MCH [4] was 18.7 pg and the MCHC [4] was 34.3%. It also gave an MCV [4] of 54.6 fL, a Mono [4] of 2.4% and a Neu [4] of 15.6%. For the same compound, the PT [4] was 12.4 s, the Plat [4] was 119.7 x10_4/uL and the RBC [4] was 773.8 x10_4/ul. The Ret [4] was 2.7%, the WBC [4] was 105.1 x10_2/uL and the KIDNEY_L [2] was 1.1 g. The KIDNEY_R [2] was 1.1 g, the KIDNEY_TOTAL [2] was 2.2 g and the KIDNEY_L [3] was 1.3 g. The KIDNEY_R [3] was 1.3 g, the KIDNEY_TOTAL [3] was 2.5 g and the KIDNEY_L [4] was 1.4 g. It also gave a KIDNEY_R [4] of 1.4 g, a KIDNEY_TOTAL [4] of 2.9 g and an LIVER [2] of 14.5 g. The LIVER [3] was 15.7 g, the LIVER [4] was 18.2 g and the ALP [2] was 924.4 IU/L. The AST [2] was 63.8 IU/L, the BUN [2] was 17.2 mg/dL and the CRE [2] was 0.4 mg/dL. For the same compound, the Ca [2] was 10.8 mg/dL, the Cl [2] was 101.2 meq/L and the DBIL [2] was 0.086 mg/dL. It also gave a GLC [2] of 208.6 mg/dL, an IP [2] of 8.8 mg/dL and a K [2] of 3.8 meq/L. It also gave an LDH [2] of 248.4 IU/L, a Na [2] of 140.8 meq/L and a PL [2] of 173.8 mg/dL. The RALB [2] was 3.4 g/dL, the TBIL [2] was 0.1 mg/dL and the TC [2] was 89 mg/dL. It also gave a TG [2] of 124.8 mg/dL, a TP [2] of 5.8 g/dL and a gamma-GTP [2] of 1 IU/L. The ALP [3] was 808.4 IU/L, the AST [3] was 62 IU/L and the BUN [3] was 17.2 mg/dL. For the same compound, the CRE [3] was 0.5 mg/dL, the Ca [3] was 10.5 mg/dL and the Cl [3] was 101.6 meq/L. For the same compound, the DBIL [3] was 0.066 mg/dL, the GLC [3] was 205.4 mg/dL and the IP [3] was 8.3 mg/dL. For the same compound, the K [3] was 3.9 meq/L, the LDH [3] was 198 IU/L and the Na [3] was 141.4 meq/L. It also gave a PL [3] of 162.6 mg/dL, an RALB [3] of 3.6 g/dL and a TBIL [3] of 0.1 mg/dL. The TC [3] was 84.4 mg/dL, the TG [3] was 78.4 mg/dL and the TP [3] was 6 g/dL. The gamma-GTP [3] was 0.8 IU/L, the ALP [4] was 521.6 IU/L and the AST [4] was 56.2 IU/L. The BUN [4] was 15.6 mg/dL, the CRE [4] was 0.5 mg/dL and the Ca [4] was 10.3 mg/dL. The Cl [4] was 101.6 meq/L, the DBIL [4] was 0.062 mg/dL and the GLC [4] was 221.8 mg/dL. The IP [4] was 7.3 mg/dL, the K [4] was 3.7 meq/L and the LDH [4] was 135 IU/L. It also gave a Na [4] of 141.6 meq/L, a PL [4] of 134.8 mg/dL and an RALB [4] of 3.5 g/dL. For the same compound, the TBIL [4] was 0.1 mg/dL, the TC [4] was 70 mg/dL and the TG [4] was 66 mg/dL. It also gave a TP [4] of 6.1 g/dL and a gamma-GTP [4] of 1 IU/L.
